Measured values reported in the supplement of paper PMC10307832.

Legend:
Assay in all cases: relative viability (nuclei count vs DMSO), 5 days (fraction); higher = more cells survive
[1] = tested on: NCI-H2170
Outline: (§1)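 After 5 days of treatment, lung cancer cells in 1536-well plates were fixed and stained in a single step (final 0.05% Triton X-100, 1% formaldehyde, 1 ug/ml Hoechst) and their nuclei counted on 4× images. Treatment had been applied by pin tool the day after seeding as one drug alone or as a fixed anchor-drug dose with five library-drug doses (not always all listed) in √10 steps. Relative viability is the nuclei count of treated wells divided by that of vehicle wells, and values are medians of duplicate plates.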

[2] = tested on: NCI-H1755
Outline: as §1

[3] = tested on: EMC-BAC-2
Outline: as §1

[4] = tested on: NCI-H2023
Outline: as §1

[5] = tested on: HCC-44
Outline: as §1

[6] = tested on: HOP-62
Outline: as §1

[7] = tested on: SW 900
Outline: as §1

[8] = tested on: NCI-H1437
Outline: as §1

[9] = tested on: LU99A
Outline: as §1

[10] = tested on: NCI-H1734
Outline: as §1

[11] = tested on: NCI-H358
Outline: as §1

[12] = tested on: LC-2-ad
Outline: as §1

[13] = tested on: BEN
Outline: as §1

[14] = tested on: NCI-H1395
Outline: as §1

[15] = tested on: HCC-15
Outline: as §1

[16] = tested on: NCI-H3122
Outline: as §1

[17] = tested on: SW 1573
Outline: as §1

[18] = tested on: NCI-H650
Outline: as §1

[19] = tested on: NCI-H727
Outline: as §1

[20] = tested on: NCI-H2126
Outline: as §1

[21] = tested on: NCI-H1915
Outline: as §1

CN1CCN(CCOc2cc(OC3CCOCC3)c3c(Nc4c(Cl)ccc5c4OCO5)ncnc3c2)CC1 [Saracatinib] + Cc1cc(Nc2cc(N3CCN(C)CC3)nc(Sc3ccc(NC(=O)C4CC4)cc3)n2)n[nH]1 [Tozasertib] (partner 0.1 µM)
relative viability ([1]; first compound 0.02 µM): 0.736
relative viability ([1]; first compound 0.2 µM): 0.371
relative viability ([1]; first compound 0.6325 µM): 0.723
relative viability ([1]; first compound 2 µM): 0.429
relative viability ([2]; first compound 0.02 µM): 0.526
relative viability ([2]; first compound 0.2 µM): 0.528
relative viability ([2]; first compound 0.6325 µM): 0.644
relative viability ([2]; first compound 2 µM): 0.459
relative viability ([3]; first compound 0.02 µM): 0.265
relative viability ([3]; first compound 0.2 µM): 0.256
relative viability ([3]; first compound 0.6325 µM): 0.286
relative viability ([3]; first compound 2 µM): 0.271
relative viability ([4]; first compound 0.02 µM): 0.314
relative viability ([4]; first compound 0.2 µM): 0.368
relative viability ([4]; first compound 0.6325 µM): 0.268
relative viability ([4]; first compound 2 µM): 0.262
relative viability ([5]; first compound 0.02 µM): 0.967
relative viability ([5]; first compound 0.2 µM): 0.891
relative viability ([5]; first compound 0.6325 µM): 1.48
relative viability ([5]; first compound 2 µM): 1.05
relative viability ([6]; first compound 0.02 µM): 0.367
relative viability ([6]; first compound 0.2 µM): 0.318
relative viability ([6]; first compound 0.6325 µM): 0.394
relative viability ([6]; first compound 2 µM): 0.384
relative viability ([7]; first compound 0.02 µM): 0.546
relative viability ([7]; first compound 0.2 µM): 0.533
relative viability ([7]; first compound 0.6325 µM): 0.645
relative viability ([7]; first compound 2 µM): 0.532
relative viability ([8]; first compound 0.02 µM): 0.431
relative viability ([8]; first compound 0.2 µM): 0.31
relative viability ([8]; first compound 0.6325 µM): 0.407
relative viability ([8]; first compound 2 µM): 0.344
relative viability ([9]; first compound 0.02 µM): 0.26
relative viability ([9]; first compound 0.2 µM): 0.249
relative viability ([9]; first compound 0.6325 µM): 0.226
relative viability ([9]; first compound 2 µM): 0.217
relative viability ([10]; first compound 0.02 µM): 0.305
relative viability ([10]; first compound 0.6325 µM): 0.261
relative viability ([10]; first compound 2 µM): 0.24
relative viability ([11]; first compound 0.02 µM): 0.118
relative viability ([11]; first compound 0.2 µM): 0.0883
relative viability ([11]; first compound 0.6325 µM): 0.0859
relative viability ([11]; first compound 2 µM): 0.0757
relative viability ([12]; first compound 0.02 µM): 0.39
relative viability ([12]; first compound 0.2 µM): 0.427
relative viability ([12]; first compound 0.6325 µM): 0.464
relative viability ([12]; first compound 2 µM): 0.408
relative viability ([13]; first compound 0.02 µM): 0.518
relative viability ([13]; first compound 0.2 µM): 0.477
relative viability ([13]; first compound 0.6325 µM): 0.458
relative viability ([13]; first compound 2 µM): 0.419
relative viability ([14]; first compound 0.02 µM): 0.722
relative viability ([14]; first compound 0.2 µM): 0.763
relative viability ([14]; first compound 0.6325 µM): 0.83
relative viability ([14]; first compound 2 µM): 0.619
relative viability ([15]; first compound 0.02 µM): 0.403
relative viability ([15]; first compound 0.2 µM): 0.372
relative viability ([15]; first compound 0.6325 µM): 0.365
relative viability ([15]; first compound 2 µM): 0.24
relative viability ([16]; first compound 0.02 µM): 0.569
relative viability ([16]; first compound 0.2 µM): 0.358
relative viability ([16]; first compound 0.6325 µM): 0.384
relative viability ([16]; first compound 2 µM): 0.298
relative viability ([17]; first compound 0.02 µM): 0.142
relative viability ([17]; first compound 0.2 µM): 0.207
relative viability ([17]; first compound 0.6325 µM): 0.189
relative viability ([17]; first compound 2 µM): 0.188
relative viability ([18]; first compound 0.02 µM): 0.65
relative viability ([18]; first compound 0.2 µM): 0.656
relative viability ([18]; first compound 0.6325 µM): 0.701
relative viability ([18]; first compound 2 µM): 0.716
relative viability ([19]; first compound 0.02 µM): 0.618
relative viability ([19]; first compound 0.2 µM): 0.506
relative viability ([19]; first compound 0.6325 µM): 0.525
relative viability ([19]; first compound 2 µM): 0.454
relative viability ([20]; first compound 0.02 µM): 0.819
relative viability ([20]; first compound 0.2 µM): 0.846
relative viability ([20]; first compound 0.6325 µM): 0.815
relative viability ([20]; first compound 2 µM): 0.648
relative viability ([21]; first compound 0.02 µM): 0.432
relative viability ([21]; first compound 0.2 µM): 0.382
relative viability ([21]; first compound 0.6325 µM): 0.461
relative viability ([21]; first compound 2 µM): 0.343
